Results published in patent US11925616B2, “Compositions comprising urolithin compounds” (Amazentis SA, priority 2015, dated 2024).

What was measured:
[1] = Particle size determinations for urolithin A; assay type: physicochemical; settings: for D10 / D50 / D90: Malvern Particle Size analyzer, before and after micronization
Description: The particle size of urolithin A was reduced in a controlled manner using an MC50 Spiral Jetmill, using filtered nitrogen, with a feed rate of 240 g/hr, a Venturi pressure of 12 bar, and a mill pressure of 12 bar. Different particle size distributions of urolithin A were determined on a Malvern Particle Size analyzer (Malvern Instruments, UK). Three samples were evaluated in depth.

in vivo = test: in vivo; design: species or system male Sprague-Dawley rats; settings: male, Sprague-Dawley, rat, po, 25 mg/kg
Description: The solutions for gavage were prepared as follows: 35 mg of urolithin A powder was diluted in 7 ml of 15% DMSO, 0.5% methyl cellulose/0.25% Tween 80 in water, resulting in a 5 mg/ml fine suspension. The DMSO was obtained from BDH, methyl cellulose was obtained from Sigma, and Tween 80 was obtained from Sigma-Aldrich.
Blood was collected from the rats by jugular vein cannulation at different time points, and urolithin A was quantified in the plasma to determine its pharmacokinetic profile following oral gavage of Sample #1, Sample #2, and Sample #3. The study was repeated on three rats for each sample. […]

myotubes = settings: in vitro; cited from earlier work
[2] = micronized urolithin used in the formulations of Example 1

SMILES	D10 [1] [μm]	D50 [1] [μm]	D90 [1] [μm]	Cmax (in vivo) [ng/mL]	Relative Cmax (% of non-micronized Cmax) (in vivo) [%]	Relative bioavailability (% AUC of non-micronized urolithin A) (in vivo) [%]	AUC (in vivo; AUC) [ng·h/mL]	Tmax (in vivo; Tmax (h)) [min]	AUC (in vivo) [ng·h/mL]	Tmax (in vivo) [min]	fold increase in the Cmax in comparison to Sample #1 (in vivo) [fold]	increase in the AUC in comparison to Sample #1 (in vivo) [%]	relative increase in the Cmax in comparison to Sample #1 (in vivo) [%]	effect on mean diameter of myotubes (myotubes)	D10, actual particle size [1, 2] [μm]	D50, actual particle size [1, 2] [μm]	D90, actual particle size [1, 2] [μm]
O=c1oc2cc(O)ccc2c2ccc(O)cc12 [Sample #1, Urolithin A]	1.03	53.4	365	17.1	100	100	75.1	15									
O=c1oc2cc(O)ccc2c2ccc(O)cc12 [Sample #2, Urolithin A]	0.272	2.17	6.84	37	216	128			96.2	19.8	2.16	28	116				
O=c1oc2cc(O)ccc2c2ccc(O)cc12 [Sample #3, Urolithin A]	0.597	5.67	40.1	17.4	102	126			94.8	30		26					
O=c1oc2cc(O)ccc2c2ccc(O)cc12 [Urolithin A]														not seen	0.7	3.9	11.5
O=c1oc2cc(O)ccc2c2ccccc12 [Urolithin B]														increased the mean diameter of myotubes			
